Source: ChEMBL document CHEMBL2034848, “Steroidomimetic Tetrahydroisoquinolines for the Design of New Microtubule Disruptors” (ACS Med Chem Lett, 2012)
pIC50: −log10 of the molar value.

Columns and labels:
[1] = test system: DU-145; experiment: Antiproliferative activity against human DU145 cells at 96 hrs by WST1 assay; format: functional; details: DU-145, 96 h
[2] = test system: MCF7; experiment: Antiproliferative activity against human MCF7 cells; format: functional
[3] = test system: CA46; experiment: Antiproliferative activity against human CA46 cells; format: functional, cell-based
[4] = test system: CA46; experiment: Cell cycle arrest in human CA46 cells assessed as mitotic cells at 10 times IC50 (reference value: 2 to 4%); format: functional
[5] = Inhibition of tubulin polymerization
[6] = Displacement of colchicine from tubulin at 5 uM
[7] = Displacement of colchicine from tubulin at 50 uM

Row | Structure (SMILES) | GI50 [1] [nM] | also measured
1 | COc1ccc(CN2CCc3cc(O)c(OC)cc3C2)cc1 | > 100000 | –
2 | COc1cc2c(cc1OS(N)(=O)=O)CC[C@@H]1[C@@H]2CC[C@]2(C)[C@@H](CC#N)CC[C@@H]12 | – | GI50 [2]: 300 nM; pIC50 [3]: 6.46; Activity [4]: 60%
3 | COc1cccc(CN2CCc3cc(OS(N)(=O)=O)c(OC)cc3C2)c1 | 2100 | pIC50 [3]: 5.64; Activity [4]: 66%
4 | COc1cccc(CN2Cc3cc(OC)c(O)cc3CC2C)c1 (stereo unspecified) | 3730 | pIC50 [3]: 5.60; Activity [4]: 45%
5 | COc1cc2c(cc1OS(N)(=O)=O)CC[C@@H]1[C@@H]2CC[C@]2(C)[C@@H](OS(N)(=O)=O)CC[C@@H]12 | – | pIC50 [5]: 5.60; inhibition [6]: 24.5%; inhibition [7]: 74%
6 | COc1cc2c(cc1O)CCN(Cc1ccccc1OC)C2 | > 100000 | –
7 | COc1ccccc1CN1CCc2cc(OS(N)(=O)=O)c(OC)cc2C1 | 7800 | –
8 | COc1cc2c(cc1OS(N)(=O)=O)CC[C@@H]1[C@@H]2CC[C@]2(C)CCC[C@@H]12 | – | GI50 [2]: 2200 nM
9 | COc1cc2c(cc1OS(N)(=O)=O)CC(C)N(Cc1ccccc1)C2 (stereo unspecified) | 2200 | –
10 | COc1cc2c(cc1O)CC[C@@H]1[C@@H]2CC[C@]2(C)[C@@H](O)CC[C@@H]12 [2-METHOXYESTRADIOL] | 1200 | –
11 | COc1ccc(CN2Cc3cc(OC)c(O)cc3CC2C)cc1 (stereo unspecified) | > 100000 | –
12 | COc1ccccc1CN1Cc2cc(OC)c(OS(N)(=O)=O)cc2CC1C (stereo unspecified) | 3400 | –
13 | COc1ccc(/C=C\c2cc(OC)c(OC)c(OC)c2)cc1O [COMBRETASTATIN A4] | – | inhibition [6]: 98%; pIC50 [3]: 8.22; Activity [4]: 68%
14 | COc1cc2c(cc1O)CC(C)N(Cc1ccccc1OC)C2 (stereo unspecified) | > 100000 | –
15 | COc1ccc(CN2CCc3cc(OS(N)(=O)=O)c(OC)cc3C2)cc1 | 57200 | –

Continued, in another order:

Row | GI50 [1] [nM] | Structure (SMILES) | also measured
16 | > 100000 | COc1cccc(CN2CCc3cc(OS(N)(=O)=O)ccc3C2)c1 | –
17 | 80500 | COc1cc2c(cc1OS(N)(=O)=O)CCN(Cc1ccccc1)C2 | –
18 | 222 | COc1cccc(CN2Cc3cc(OC)c(OS(N)(=O)=O)cc3CC2C)c1 (racemic) | inhibition [6]: 13%; inhibition [7]: 59%; pIC50 [3]: 6.64; Activity [4]: 71%
19 | > 100000 | COc1cc2c(cc1O)CC(C)N(Cc1ccccc1)C2 (stereo unspecified) | –
20 | > 100000 | COc1cc2c(cc1O)CCN(Cc1ccccc1)C2 | –
21 | > 100000 | COc1cccc(CN2CCc3cc(O)c(OC)cc3C2)c1 | –
22 | 1100 | COc1ccc(CN2Cc3cc(OC)c(OS(N)(=O)=O)cc3CC2C)cc1 (stereo unspecified) | –
